Results from article PMC11440583 (2024).

How the values were obtained:
[1] = system: c-MYC Pu24T (c-MYC Pu24-T; c-MYC Pu24) (DNA, G4) TGAGGGTGGTGAGGGTGGGGAAGG; assay: CD (or UV) thermal melting; conditions: 5 mM KCl; 10 mM Tris pH 7.2; 8 μM compound, 2 μM DNA
[2] = system: VEGF (DNA, G4) GGGAGGGTTGGGGTGGG; assay: CD (or UV) thermal melting; conditions: 5 mM KCl; 10 mM Tris pH 7.2; 8 μM compound, 2 μM DNA
[3] = system: Cy5-HIF-1α (DNA, G4) GCGCGGGGAGGGGAGAGGGGGCGGGAGCGCG; assay: microscale thermophoresis (ligand-induced fluorescence quenching); conditions: 100 mM KCl; 50 mM Tris pH 7.2, 0.05% Tween 20; 50 nM G4
[4] = system: c-MYC Pu22 (DNA, G4) TGAGGGTGGGTAGGGTGGGTAA; assay: 1H NMR titration; conditions: K+; 0-1.5 equiv compound
[5] = system: dsDNA (DNA, duplex) CAATCGGATCGAATTCGATCCGATTG; assay: CD (or UV) thermal melting; conditions: 5 mM KCl; 10 mM Tris pH 7.2; 8 μM compound, 2 μM DNA
[6] = system: Bom17 (DNA, G4) GGTTAGGTTAGGTTAGG; assay: CD (or UV) thermal melting; conditions: 15 mM KCl; 10 mM Tris pH 7.2; 8 μM compound, 2 μM DNA
[7] = system: c-MYC Pu22 (DNA, G4) TGAGGGTGGGTAGGGTGGGTAA; assay: CD (or UV) thermal melting; conditions: 5 mM KCl; 10 mM Tris pH 7.2; 8 μM compound, 2 μM DNA
[8] = system: F-Tel22-Na+-T (DNA, G4) AGGGTTAGGGTTAGGGTTAGGG; assay: FRET melting with dsDNA competitor; conditions: 40 mM NaCl; 10 mM sodium cacodylate pH 7.2; 2 μM compound, 0.2 μM G4; 0-20 μM dsDNA
[9] = system: Tel22 (Tel22-Na+ antiparallel; Tel22-K+ hybrid) (DNA, G4) AGGGTTAGGGTTAGGGTTAGGG; assay: CD (or UV) thermal melting; conditions: 10 mM Tris pH 7.2, 8 μM compound, 2 μM DNA
[10] = system: TBA (DNA, G4) GGTTGGTGTGGTTGG; assay: CD (or UV) thermal melting; conditions: 5 mM KCl; 10 mM Tris pH 7.2; 8 μM compound, 2 μM DNA
[11] = system: Tel22 (Tel22-Na+ antiparallel; Tel22-K+ hybrid) (DNA, G4) AGGGTTAGGGTTAGGGTTAGGG; assay: 1H NMR titration; conditions: up to 2.0 equiv compound

NCCNCCNC(=O)c1cc(F)c(/N=N/c2c(F)cc(-c3ccncc3)cc2F)c(F)c1
ΔTm [1]: 4.2 °C
ΔTm [2]: 14.7 °C
association constant [3]: 2.8 × 10^5 M^–1
binding [4]: yes
ΔTm [5]: 1.0 °C
ΔTm [6]: 8.8 °C
ΔTm [7]: 19.2 °C
binding [8]: yes
ΔTm ([9]; 5 mM KCl): 9.9 °C
ΔTm ([9]; 15 mM NaCl): 5.8 °C
ΔTm [10]: 6.3 °C
binding [11]: yes
